Laboratory results: patent US20230078718A1, “UNSATURATED FATTY ACID-CONJUGATED CP2C-TARGETING PEPTIDE-BASED ANTICANCER AGENT” (Industry-University Cooperation Foundation Hanyang …, priority 2020, published 2023)
Bridge positions count the residues as written; N and C are the ends. Peptide text beside a SMILES is read from it. * marks the point of attachment. X1 = CC/C=C\C/C=C\C/C=C\C/C=C\C/C=C\C/C=C\CCC(=O)*

How the values were obtained:
[1] = system: CP2c transcription factor complexes [CP2c homotetramer and the CBP (CP2c, CP2b, and PIAS1) heterohexamer]; experiment: Interference with CP2c transcription factor complex formation and DNA binding; type: biochemical
Source text: Since PEP #5-2 cannot enter cells by itself, in order to improve cell permeability of Pep #5-2, a cell-penetrating peptide (CPP), an internalizing RGD (iRGD) which is a peptide consisting of 9 amino acids (9aa) ‘Cys-Arg-Gly-Asp-Lys-Gly-Pro-Asp-Cys (CRGDKGPDC, SEQ ID NO: 3)’, was bound to the CP2c-targeting peptide and named it as ACP52C (FIG. 7).

[2] = system: MCF10A, a non-tumorigenetic breast epithelial cell line; conditions: FACS
MDA-MB-231 cell line = conditions: MDA-MB-231, FACS
[3] = system: breast cancer (MDA-MB-231) and liver cancer (HepG2) cell lines
human erythrocytes = experiment: Hemolysis of erythrocytes; type: cell-based; conditions: pH 7.4, 8 hours
Source text: (§1) The following methods were used to confirm the stability and safety of the cancer cell-specific cell death-inducing ACP52C. […] It is presumed that ACP52C is subjected to renal secretion rather than degradation by proteases, since ACP52C (a peptide consisted of 15 amino acids) is short enough to be easily secreted from the kidneys.

MDA-MB-231 cells = conditions: western blotting of apoptosis-related proteins, electron microscopy, Annexin V/PI
[4] = Live imaging of Cy5-labeled peptide after tail vein injection in Hep3B xenograft mouse; conditions: in vivo
Source text: as §1

[5] = system: various cancer cell lines; experiment: Cell growth inhibition in various cancer cell lines (MTT assay, GI50); type: cell-based
[6] = Stability in serum (in vitro) by HPLC; type: in vitro ADME
Source text: as §1

MCF7 cells = conditions: ACP52C-treated MCF7 cells
[7] = system: MDA-MB-231 and HepG2 cell lines
MCF10A cells = conditions: electron microscopy
[8] = Half-life in blood (in vivo) by HPLC; conditions: read-out: time to degradation to half in blood (in vivo) (converted)
Source text: as §1

Hep3B xenograft = experiment: Tumor growth inhibition in Hep3B xenograft mouse model; type: in vivo
Description: In order to confirm the anticancer efficacy of ACP52CG and ACP52CK in vivo, following groups of treatment were performed […]; a negative control (saline; mock), a positive control (sorafenib, 10 mg/kg and ACP52C, 2 mg/kg), and an experimental group (ACP52CK, 5 mg/kg and ACP52CG, 5 mg/kg).

[9] = system: normal human mesenchymal stem cells (hMSCs)
Description: (§2) As an example thereof, FIG. 10 illustrates cell numbers at 48 hours and 96 hours after treatment of each drug at different concentrations in a breast cancer cell line (MDA-MB-231), normal human mesenchymal stem cells (hMSCs, LT18), and a non-tumorigenic lung cell line (BEAS-2B), cell growth inhibition graphs to get GI50 values, and representative photographs of cells.
(§3) First, to test the effect of DHA itself, a breast cancer cell line (MDA-MB-231), liver cancer cell lines (Hep3B and HepG2), a normal hMSC cell line ([…]), and a non-tumorigenic lung cell line (BEAS-2B) were treated with DHA over concentrations, and then cell growth was analyzed by MTT assay.

[10] = system: non-tumorigenic lung cell line (BEAS-2B)
Description: as §2, §3

[11] = system: breast cancer cell line (MDA-MB-231), liver cancer cell lines (Hep3B and HepG2); experiment: Cell growth by MTT assay after DHA treatment of cancer cell lines; type: cell-based
Description: First, to test the effect of DHA itself, a breast cancer cell line (MDA-MB-231), liver cancer cell lines (Hep3B and HepG2), a normal hMSC cell line (LA211), and a non-tumorigenic lung cell line (BEAS-2B) were treated with DHA over concentrations, and then cell growth was analyzed by MTT assay.

[12] = tail vein, 6 times at 3-day intervals, sorafenib 10 mg/kg, DHA-ACP52 1.65 mg/kg, DHA-ACP52C 2.79 mg/kg

Molecule: NYPQRP(Asn-Try-Pro-Gln-Arg-Pro, SEQ ID NO: 2) (peptide for targeting CP2c) [PEP #5-2, CP2c-targeting peptide of 6 amino acids at the carboxyl terminus of PEP #5]
- interference with DNA binding of the CP2c transcription factor complexes by suppressing complex formation [1]: showed the same effect as PEP #5

Molecule: N=C(N)NCCC[C@@H]1NC(=O)[C@@H](NC(=O)[C@@H]2CCCN2C(=O)[C@H](CCCNC(=N)N)NC(=O)[C@H](CCC(N)=O)NC(=O)[C@@H]2CCCN2C(=O)[C@H](Cc2ccc(O)cc2)NC(=O)[C@@H](N)CC(N)=O)CSSC[C@@H](C(N)=O)NC(=O)[C@H](CC(=O)O)NC(=O)[C@@H]2CCCN2C(=O)CNC(=O)[C@H](CCCCN)NC(=O)[C@H](CC(=O)O)NC(=O)CNC1=O [ACP52C] (H-NYPQRPCRGDKGPDC-NH2; disulfide 7-15; N-terminus assumed)
- cell cycle progression [2]: exerted no effect on cell cycle progression
- cell cycle changes (MDA-MB-231 cell line): induced cell cycle arrest, increasing cells at G2/M and subG1 phases
- GI50 [3]: 2 µM
- hemolysis (human erythrocytes): Hemolysis was not appeared
- cell death induction via apoptosis (MDA-MB-231 cells): induced cell death via apoptosis
- half-life [4]: ~7.95 h
- effective concentration for cancer cell-specific cell death [5]: ≤ 10 µM
- cancer cell-specific growth suppression and cell death ([5]; various cancer cell lines): cancer cell-specific growth suppression and cell death efficacies
- time stable in serum (in vitro) [6]: up to 24 hours
- expression of Cdc2 (CDK1) and Cyclin B1 (MCF7 cells): expression of Cdc2 (CDK1) and Cyclin B1 was decreased
- colony formation ability when CP2c is overexpressed ([7]; CP2c overexpression): the colony formation ability is suppressed more efficiently
- colony formation ability ([7]; MDA-MB-231 and HepG2): efficiently suppressed the colony formation ability
- characteristics of apoptosis (condensation of cell nuclei) (MCF10A cells): not at all in MCF10A cells
- half-life [8]: 2 h
- anticancer effect (summary) (Hep3B xenograft; injected by 3-day intervals): exhibited a significant anticancer effect when injected by 3-day intervals
- anticancer effect (summary) (Hep3B xenograft; injected by 5-day intervals): did not exhibit a significant anticancer effect when injected by 5-day intervals

Molecule: CNC(=O)c1cc(Oc2ccc(NC(=O)Nc3ccc(Cl)c(C(F)(F)F)c3)cc2)ccn1 [sorafenib, reference compound]
- tumor size measured once every 3 days during the experiment (Hep3B xenograft; [12]): inhibited cancer growth more effectively than the group treated with mock or DHA-ACP52
- tumor size, shape, and weight in sacrificed mice (Hep3B xenograft; [12]): significant anticancer efficacy compared to the mock

Molecule: CC/C=C\C/C=C\C/C=C\C/C=C\C/C=C\C/C=C\CCC(=O)O [DHA, all-cis-docosa-4,7,10,13,16,19-hexa-enoic acid, reference compound]
- cytotoxicity [9]: showed no cytotoxicity on the normal cell line
- concentration showing cytotoxicity ([10]; human): ≥ 20 µM
- anticancer effect at a concentration of 10 μM or less ([11]; Hep3B and MDA-MB-231 cell lines): no anticancer effect was exhibited
- concentration showing cytotoxicity ([11]; cancer cells, MTT): ≥ 20 µM

Molecule: PEP #5: peptide binding transcription factor CP2c, identified by the phage display method (YPQR; peptide for targeting CP2c)
- interference with DNA binding of the CP2c transcription factor complexes by suppressing complex formation [1]: interferes with DNA binding of the CP2c transcription factor complexes

Molecule: CC/C=C\C/C=C\C/C=C\C/C=C\C/C=C\C/C=C\CCC(=O)NCC(=O)NCC(=O)N[C@@H](CC(N)=O)C(=O)N[C@@H](Cc1ccc(O)cc1)C(=O)N1CCC[C@H]1C(=O)N[C@@H](CCC(N)=O)C(=O)N[C@@H](CCCNC(=N)N)C(=O)N1CCC[C@H]1C(N)=O [DHA-ACP52] (X1-GGNYPQRP-NH2)
- GI50 [3]: 5.7 to 6.95 µM
- toxicity [9]: none of DHA-ACP52 and DHA-ACP52C showed toxicity
- toxicity [10]: none of DHA-ACP52 and DHA-ACP52C showed toxicity
- tumor size, shape, and weight in sacrificed mice (Hep3B xenograft; [12]): did not exhibit any effect
